# What was measured:
# [1] = system: rabbit esophageal epithelium; assay: Ussing chamber method for assessing esophageal epithelial protection against acid injury (60 mM HCl, pH 1.6, decline in electrical resistance R); assay type: cell-based; settings: for protective activity, Resistance Index (RI)=[(Ragent/Rcontrol)-1], RI >0.2 considered significant: 2, 4 and/or 8 mM for 15 min, 30 min and/or >30 min before 60 mM HCl pH 1.6 for 1 hour, N=1 tissue/dose, FIG. 9; for protection against acid injury after brief luminal exposure: 1 min exposure to 4 mM agent, multiple washouts over 4 hours, FIG. 5; for lowest protective dose: pH 1.6, 1 hour; for protective effect, single exposure: single 1 min exposure
# From the text: Previously, a test system was developed in the Ussing chamber to identify and characterize agents with cytoprotective effects against acid injury to the tissue. Briefly, the esophageal epithelium is mounted in the Ussing chamber so that acid (or acid-pepsin) could be added to the luminal bath while monitoring changes in electrical resistance (R). The changes in R are an effective means to identify damage by acid or acid-pepsin since damage is heralded by an increase in paracellular permeability and this reflected by a decline in R. In effect, the ability of an agent or compound to prevent the acid-induced decline in R without altering luminal pH (which excludes protection being mediated by acid buffering or neutralization) is evidence for a cytoprotective effect, i.e. protection directly exerted by the agent or compound on the epithelium. Further, we previously established that the ability of an agent or compound to prevent the acid-induced decline in R in this Ussing chamber model of acid injury was an accurate predictor, and therefore surrogate marker, of its ability to protect rabbit esophageal epithelium against acid injury in vivo (U.S. Pat. Nos. 5,374,537 and 5,189,056).
# (§1) New Zealand white rabbits weighing between 8-9 lbs are sacrificed by administering an intravenous overdose of phenobarbital (60 mg/mL). The esophagus is excised, opened, and pinned mucosal surface down in a paraffin tray containing ice-Cold oxygenated normal Ringer's solution. The submucosa is grasped with hemostats, lifted up, and dissected free of the underlying mucosa with a scalpel. This process yields a sheet of tissue consisting of stratified squamous epithelium and a small amount of underlying connective tissue. From this tissue, four sections are cut and mounted as flat sheets between Lucite half-Chambers with an aperture of 1.13 cm^2 for measurements of potential difference (PD), short circuit current (Isc) and, from these values, calculation of transmucosal electrical resistance (R). Tissues are bathed with normal Ringer solution composed of the following (in mmol/L): Na 140; Cl 119.8; K 5.2; HCO3 25; Ca 1.2; Mg 1.2; HPO4 2.4; H2PO4 0.4; and 268 mOsm/kg water, with pH 7.5 when gassed with 95% O2/5% CO2 at 37° C. Mucosal and serosal solutions are connected to calomel and Ag—AgCl electrodes with Ringer's-agar bridges for measurements of PD and automatic short-Circuiting of the tissue with a voltage clamp (World Precision Instruments Inc., Sarasota, Fla.). Tissues are monitored continuously in the open-circuit state except for 5-10 second periods when the Isc is read. Electrical resistance (R) was calculated using Ohm's Law from the open-circuit PD and Isc.
# To test the protective effect of an agent against acid injury to esophageal epithelium, 45 minutes after mounting (equilibration period), tissues paired by R had for one of the pair varying amounts of an agent added to the luminal bath while the other part of the pair received vehicle (normal Ringer solution) as control. After varying periods of exposure to the agent, 60 mM HCl was added to the luminal (mucosal) solution to reduce pH to 1.6; the pH was monitored and maintained throughout the 1 hr of exposure for all tissues to ensure uniform risk of injury. This negated any protective effect as being due to buffering by the agent. In some experiments the power of the protective effect of an agent was determined after varying periods of luminal exposure by washout prior to acid exposure, i.e. replacement of the luminal bath containing agent with normal Ringer Solution that contained only vehicle. R was then monitored before and during acidification with 60 mM HCl and the results for agent and controls presented as percent decline in R from pre-acidification values. […]
# [2] = system: rabbit esophageal epithelium; assay: In vivo delivery of agent in drinking water, then Ussing chamber acid injury test (60 mM HCl, pH 1.6); settings: for protective effect after in vivo delivery in drinking water: rabbit, acid on day 5
# Procedure: as §1
# (§2) New Zealand white rabbits weighing between 8-9 lbs were given 25 ml of water containing test agent or water alone (control) to drink once each morning on 4 consecutive days. Following consumption of the 25 ml of water, the rabbits had their normal water source restored and they ate and drank normally for the remainder of each day. Twenty-four hours after the last dose, the rabbits were sacrificed by administering an intravenous overdose of phenobarbital (60 mg/mL). The esophagus was excised and processed as above to test its ability to resist acid injury upon exposure to 60 mM HCl , pH 1.6, for 1 hr. Three sections of rabbit esophageal epithelium that had been exposed to test agent and three sections exposed to water alone (control) were mounted, equilibrated and then simultaneously exposed to acid on the same day without the operator being aware of which were treated and which were control sections of epithelium. Initial R values in all experiments were similar preacidification. […] Significance was taken as a difference in values of p<0.05.
# [3] = system: rabbit esophageal epithelium; assay: In vivo delivery of agent in drinking water, then Ussing chamber acid-pepsin injury test (60 mM HCl, pH 1.6, 1 mg/ml pepsin); settings: FIG. 12
# Procedure: as §2
# FIG. 12 is a graph showing the protective effect against an acid-pepsin mixture after in vivo delivery of CDDD-1193 in drinking water. A rabbit spontaneously drank 25 ml of water containing 0.6 mg (40 μM) or 0.06 mg (4 μM) CDDD-1193 once-a-day for 4 consecutive days or water alone. On day 5, the rabbits were sacrificed and three sections of esophageal epithelium mounted in Ussing chambers from each rabbit. After equilibration in Ringer solution, all tissues were acidified by luminal addition of 60 mM HCl , pH 1.6, containing 1 mg/ml pepsin, for 1 hour. Electrical resistance, R, was monitored and plotted as percent initial R (%) at the end of 1 hour of acid-pepsin exposure. […] N=3 tissues; * p<0.05 compared to controls.
# [4] = then 60 mM HCl pH 1.6 for 1 hour
# [5] = agent in luminal bath 30 min before and continuously during 60 mM HCl, R as % of initial R, FIG. 1, 2
smiles,measurement,setting,value
"O=S(=O)([O-])OCC(Oc1ccccc1)c1ccccc1.[Na+] (centres unmarked) [CDDD-1185, 2-Phenoxy-2-phenylethanesulfate, sodium salt]","protective activity, Resistance Index (RI)=[(Ragent/Rcontrol)-1], RI >0.2 considered significant",[1],may have significant protective activity
"O=S(=O)(O)OC[C@@H](OS(=O)(=O)O)[C@@H](Oc1ccccc1)c1ccccc1.[Na].[Na] [CDDD-1187, (2R, 3S)-3-Phenoxy-3-phenylpropane-1,2-disulfate, disodium salt]","protective activity, Resistance Index (RI)=[(Ragent/Rcontrol)-1], RI >0.2 considered significant",[1],may have significant protective activity
"O=S(=O)([O-])OCC(Oc1ccc(Cl)cc1S(=O)(=O)[O-])c1ccccc1.[Na+].[Na+] (centres unmarked) [CDDD-1188, 2-(4-Chloro-2-sulfophenoxy)-2-phenylethanesulfate, disodium salt]","protective activity, Resistance Index (RI)=[(Ragent/Rcontrol)-1], RI >0.2 considered significant",[1],may have significant protective activity
"O=S(=O)(O)OCC(OS(=O)(=O)O)C(Oc1ccccc1)c1ccc(N=C=S)cc1 [CDDD-1192, Disodium (2S, 3R)-3-(4-isothiocyanatophenyl)-3-phenoxypropane-1,2-disulfate]",protection against acid injury after brief luminal exposure,[1]; [4],retain significant protection
same,lowest protective dose,"[1]; agent in luminal bath 30 min before and during 60 mM HCl, FIG. 3",0.004 mM
"O=S(=O)(O)OC[C@H](OS(=O)(=O)O)[C@H](Oc1ccc(N=C=S)cc1)c1ccc(N=C=S)cc1.[Na].[Na] [CDDD-1193, Disodium (2S, 3R)-3-(4-isothiocyanophenoxy)-3-(4-isothiocyanatophenyl)propane-1,2-disulfate]","protective effect, repeated exposures","[1]; 400 nM, 1 min every 5 min times ten exposures, then 60 mM HCl pH 1.6 for 1 hour, FIG. 7",protective
same,"protective effect, single exposure","[1]; 400 nM, then 60 mM HCl pH 1.6 for 1 hour, FIG. 7",little protection
same,"protective effect, repeated exposures","[1]; 1 μM, 1 min every 5 min times 5 or ten exposures, then 60 mM HCl pH 1.6 for 1 hour, FIG. 8",cumulative with repeated exposures
same,"protective effect, single exposure","[1]; 1 μM, then 60 mM HCl pH 1.6 for 1 hour, FIG. 8",modestly protective
same,protection against acid injury after brief luminal exposure,[1]; [4],retain significant protection
same,protective effect after brief luminal exposure,"[1]; 1 min exposure to 4 mM, multiple washouts over 8 hours, then 60 mM HCl pH 1.6 for 1 hour, FIG. 6",substantial
same,persistence of protective effect,"[1]; 1 min exposure to 4 mM, repeated washes before 60 mM HCl pH 1.6, FIG. 6",8 h
same,lowest protective dose,"[1]; agent in luminal bath 30 min before and during 60 mM HCl, FIG. 4",4e-05 mM
same,protective effect after in vivo delivery in drinking water,"[2]; 4 μM (0.06 mg in 25 ml water) once-a-day for 4 days, FIG. 10B",significantly protective
same,duration of protective effects after the last dose,"[2]; 4 μM in drinking water once-a-day for 4 days, FIG. 10B",at least 24 hrs
same,protective effect after in vivo delivery in drinking water,"[2]; 40 μM (0.6 mg in 25 ml water) once-a-day for 4 days, FIG. 10A",significantly protective
same,duration of protective effects after the last dose,"[2]; 40 μM in drinking water once-a-day for 4 days, FIG. 10A",at least 24 hrs
same,protective effect against acid-pepsin after in vivo delivery in drinking water,[3]; 4 μM (0.06 mg in 25 ml water) once-a-day for 4 days,significantly protective
same,protective effect against acid-pepsin after in vivo delivery in drinking water,[3]; 40 μM (0.6 mg in 25 ml water) once-a-day for 4 days,significantly protective
same,duration of protective effect against acid-pepsin after the last dose,[3]; 40 μM and 4 μM in drinking water once-a-day for 4 days,at least 24 hours
"CC(=O)Nc1ccc(C=Cc2ccc(N=C=S)cc2S(=O)(=O)O)c(S(=O)(=O)O)c1 [SITS, 4-acetamido-4′-isothiocyanatostilbene-2-2′-disulfonic acid, reference compound]",protection against acid injury after brief luminal exposure,[1]; [4],retain significant protection
same,lowest protective dose,[1]; [5],0.1 mM
same,protective effect after in vivo delivery in drinking water,"[2]; 4 mM (50 mg in 25 ml water) once-a-day for 4 days, FIG. 11",significantly protective
same,duration of protective effects after the last dose,"[2]; 4 mM in drinking water once-a-day for 4 days, FIG. 11",at least 24 hrs
"O=S(=O)(O)OC[C@H]1O[C@@](COS(=O)(=O)O)(O[C@H]2O[C@H](COS(=O)(=O)O)[C@@H](OS(=O)(=O)O)[C@H](OS(=O)(=O)O)[C@H]2OS(=O)(=O)O)[C@@H](OS(=O)(=O)O)[C@@H]1OS(=O)(=O)O [SOS, sucrose octasulfate, reference compound]",protection against acid injury after brief luminal exposure,[1]; [4],retain significant protection
same,lowest protective dose,[1]; [5],1 mM

# Source: patent publication US20020052408A1, “Methods for protection of stratified squamous epithelium against injury by noxious substances and novel agents for use therefor” (priority 2000, published 2002)
